Earlier results on one compound are cited in US20150119272A1, “DOSE-RESPONSE MEDICAL OUTCOME MODEL PREDICTOR SYSTEM AND METHOD” (ROYAL COLLEGE OF SURGEONS IN IRELAND, priority 2012, published 2015).

For orientation: Kd means the equilibrium constant for the complex coming apart.

For one data set, the target named is Bcl-(X)L (Homo sapiens, UniProt Q07817). Particulars: binding to Bcl-(X)L; taken from literature (Lessene et al. 2008).
Another data set has as its target Mcl-1 (Homo sapiens, UniProt Q07820). Particulars: binding to Mcl-1; taken from literature (Lessene et al. 2008).

Sequence of Mcl-1 (Q07820 whole entry, species assumed): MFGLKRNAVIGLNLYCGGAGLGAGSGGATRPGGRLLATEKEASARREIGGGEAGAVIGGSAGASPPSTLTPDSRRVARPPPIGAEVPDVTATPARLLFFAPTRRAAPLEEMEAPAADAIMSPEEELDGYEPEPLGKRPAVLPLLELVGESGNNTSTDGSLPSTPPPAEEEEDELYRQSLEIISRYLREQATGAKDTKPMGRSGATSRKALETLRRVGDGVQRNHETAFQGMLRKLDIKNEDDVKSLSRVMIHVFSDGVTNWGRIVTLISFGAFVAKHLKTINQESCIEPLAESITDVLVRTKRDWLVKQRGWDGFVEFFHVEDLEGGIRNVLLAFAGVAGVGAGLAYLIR
Sequence of Bcl-(X)L (Q07817 whole entry, species assumed): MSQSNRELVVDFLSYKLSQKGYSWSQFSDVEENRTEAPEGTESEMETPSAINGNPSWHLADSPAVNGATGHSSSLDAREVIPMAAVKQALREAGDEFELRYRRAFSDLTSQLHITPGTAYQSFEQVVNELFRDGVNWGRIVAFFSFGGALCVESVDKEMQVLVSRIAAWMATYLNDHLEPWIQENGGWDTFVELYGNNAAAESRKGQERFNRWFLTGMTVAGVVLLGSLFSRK

`Cc1cc2c(C(C)C)c(O)c(O)c(C=O)c2c(O)c1-c1c(C)cc2c(C(C)C)c(O)c(O)c(C=O)c2c1O` [Gossypol]: the Kd on Bcl-(X)L is 660 nM; on Mcl-1 it was 25 nM.
